pIC50: −log10 of the molar value.

Assay [1] deals with cholesterol level in the serum. As to the kind of experiment: effect of reducing a lipid level in blood (serum cholesterol) in hamsters fed diet containing 1% cholesterol and 0.5% cholic acid. The format is in vivo, golden hamster (male). To be noted: percent inhibition of serum cholesterol relative to control, 1 mg/10 ml water/kg orally once a day, blood taken on fifth day 3 h after final administration; for inhibition in vivo at 1 mg/kg: Mesocricetus auratus, po, once a day, read-out: Reduction of Cholesterol in Blood. How it is done:
The effect of reducing a lipid level in blood by the action of the compounds according to the present invention was determined as follows:
Male golden hamsters weighing from 80 to 100 g were randomly divided into groups. The hamsters were first fed standard laboratory diets (solid feed MF-1 for mouse/rat/hamster, manufactured by Oriental yeast Industries, KK) for 3 days. Then, they were fed the experimental diet containing 1% cholesterol and 0.5% cholic acid ad libitum. At the same time, the compounds of the invention formulated in a shown dose (1 mg/10 ml water/kg) were administrated to the hamsters orally once a day at a determined time. Water was administrated orally to the hamsters of control group in an amount of 10 ml per 1 kg of body weight. On fifth day of administrating the compounds, the hamsters were anesthetized with nembutal (Nembutal injection, manufactured by Dainabbot) three hours after the final administration of the test compound, and a blood sample was taken from abdominal cava. The serum was separated from the sample by centrifuging.
The cholesterol level in the serum was determined by using a blood cholesterol measuring kit, Determina-TC5 manufactured by Kyowa Medix Co. The results are represented by percent inhibition (%) of cholesterol level in serum relative to that of the control group, and shown in the following Table 20.

The target of the next assay is T1, ACAT (Mesocricetus auratus, UniProt A0A1U8BU94).
T1 construct: each tissue specimen containing hamster liver microsome; from tissue; host or cells: hamster liver microsomes
T1 sequence (A0A1U8BU94 1-521): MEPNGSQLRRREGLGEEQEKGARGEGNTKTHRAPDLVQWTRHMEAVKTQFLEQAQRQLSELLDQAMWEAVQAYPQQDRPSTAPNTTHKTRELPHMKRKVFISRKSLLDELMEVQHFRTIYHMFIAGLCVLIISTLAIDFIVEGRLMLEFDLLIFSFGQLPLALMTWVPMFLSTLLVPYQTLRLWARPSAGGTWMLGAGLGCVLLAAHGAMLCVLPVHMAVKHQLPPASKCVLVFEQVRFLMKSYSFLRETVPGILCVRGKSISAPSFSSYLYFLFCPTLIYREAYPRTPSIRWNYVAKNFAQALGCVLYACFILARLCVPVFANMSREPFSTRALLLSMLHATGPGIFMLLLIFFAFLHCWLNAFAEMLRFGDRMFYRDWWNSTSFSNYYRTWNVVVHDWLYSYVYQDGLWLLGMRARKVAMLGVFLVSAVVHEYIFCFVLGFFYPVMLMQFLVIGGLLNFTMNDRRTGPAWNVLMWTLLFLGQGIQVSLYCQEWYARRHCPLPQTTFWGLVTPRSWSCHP
Nature of the assay: ACAT inhibitory action (cholesteryl oleate formation from radio-labelled oleoyl coenzyme A, liver microsome). The format is biochemical. The conditions noted are these: hamster liver microsome; inhibition of cholesteryl oleate formation. How it is done:
The ACAT inhibitory action of the compounds of this invention was determined by the following method.
ACAT activity was determined by measuring the amount of ratio-active cholesteryl oleate formed from radio-labelled oleoyl coenzyme A in each tissue specimen containing hamster liver microsome. The reduction rates (%) in the amount of formation of cholesteryl oleate by the administration of the test compound in various concentrations (μM) as compared with as compared with the amount of formation in the control group to which no test compound was administrated were measured. The ACAT inhibitory action was evaluated by IC50, the concentration of the test compound necessary for inhibiting the activity of the enzyme by 50%, obtained from the reduction rates.
(Microsomes from liver hold many membrane-bound enzymes, among them those of drug oxidation.)

Assay [2] has as its system cholesterol level in the serum. Nature of the assay: effect of reducing a lipid level in blood (serum cholesterol) in hamsters fed diet containing 1% cholesterol and 0.5% cholic acid. To be noted: Mesocricetus auratus, po, 120 h, comparison compound; dose of 5 mg/kg p.o.; read-out: Reduction of Cholesterol in Blood. The format is in vivo, golden hamster (male).

`CCCC(CCC)(CNC(=O)Nc1c(C(C)C)cccc1C(C)C)c1cccc2c1OCO2` [Example 30]: the inhibition in vivo at 1 mg/kg in assay [1] came out at 18%.

Take `CCCC(CNC(=O)Nc1c(C(C)C)cccc1C(C)C)c1ccc2c(c1)OCO2` (stereo not shown) [Example 16]: the inhibition in vivo at 1 mg/kg in assay [1] amounted to 34%.

In the case of `CCC(CC)(CNC(=O)Nc1c(C(C)C)cccc1C(C)C)c1cccc2c1OCO2` [Example 11], at ACAT, the pIC50 is 7.49. Further, the inhibition in vivo at 1 mg/kg in assay [1] was found to be 31%.

Consider `CCCCCC(CNC(=O)Nc1c(OC)cccc1OC)c1cccc2c1OCO2` (stereo not shown) [Example 48, 1-(2-(2,3-methylenedioxyphenyl)heptyl)-3-(2,6-dimethoxyphenyl)urea], for which the negative logarithm of the IC50 (pIC50) against ACAT was 7.70.

As for `CCCCCC(CNC(=O)Nc1c(C(C)C)cccc1C(C)C)c1cccc2c1OCO2` (stereo not shown) [Example 1, 1-(2-(2,3-methylenedioxyphenyl)heptyl)-3-(2,6-diisopropylphenyl)urea], the inhibition in vivo at 1 mg/kg in assay [1] came out at 34%.

Regarding `CCCCC(CNC(=O)Nc1c(C(C)C)cccc1C(C)C)c1ccc2c(c1)OCO2` (single isomer, unassigned) [Example 62], the “Reduction of Cholesterol in Blood” value in assay [1] is 33%.

On to `CCCCCCCC(CNC(=O)Nc1c(C(C)C)cccc1C(C)C)c1cccc2c1OCO2` (stereo not shown) [Example 9], for which the negative-log IC50 (pIC50) against ACAT is 7.07.

As for `CCCCC(CNC(=O)Nc1c(C(C)C)cccc1C(C)C)c1cccc2c1CCCC2` (single isomer, unassigned) [Example 65], at ACAT, the pIC50 was 7.92. Further, the inhibition in vivo at 1 mg/kg in assay [1] is 44%.

On ACAT, `CCCCCC(CNC(=O)Nc1c(C(C)C)cccc1C(C)C)c1cccc2c1OCO2` (single isomer, unassigned) [Example 64] showed a negative logarithm of the IC50 (pIC50) of 7.92. Also, the “Reduction of Cholesterol in Blood” value in assay [1] was 27%.

Turning to `CCCCCC(CNC(=O)Nc1c(C(C)C)cccc1C(C)C)c1cccc2c1CCCC2` (stereo not shown) [Example 56], the pIC50 on ACAT was 8.40. In addition, the inhibition in vivo at 1 mg/kg in assay [1] was 42%.

Regarding `CCCCC(CNC(=O)Nc1c(C(C)C)cccc1C(C)C)c1cccc2c1CCCC2` (single isomer, unassigned) [Example 66], the negative-log IC50 (pIC50) at ACAT is 7.55. In addition, the “Reduction of Cholesterol in Blood” value in assay [1] is on record as 40%.

For `CCCCC(CNC(=O)Nc1c(C(C)C)cccc1C(C)C)c1cc(OC)c2c(c1)OCO2` (stereo not shown) [Example 52, 1-(2-(3,4-methylenedioxy-5-methoxyphenyl)hexyl)-3-(2,6-diisopropylphenyl)urea], the inhibition in vivo at 1 mg/kg in assay [1] came to 15%.

As to `CCCCC(CNC(=O)Nc1c(C(C)C)cccc1C(C)C)c1cccc2c1OCO2` (stereo not shown) [Example 6], in assay [1], the inhibition in vivo at 1 mg/kg was determined as 40%.

On to `CC(C)c1cccc(C(C)C)c1NC(=O)NCC(c1ccccc1)C(C)(C)C` (stereo not shown) [Comparison, 1-(3,3-dimethyl-2-phenylbutyl)-3-(2,6-diisopropylphenyl)urea], for which, in assay [2], the inhibition in vivo at 5 mg/kg was determined as 5%.

As for `CCCCCCC(CNC(=O)Nc1c(C(C)C)cccc1C(C)C)c1ccc2c(c1)OCCO2` (stereo not shown) [Example 25], the inhibition in vivo at 1 mg/kg in assay [1] worked out at 39%.

For the compound `CCCCC(CNC(=O)Nc1c(C(C)C)cccc1C(C)C)c1ccc2c(c1)OCCO2` (stereo not shown) [Example 23], the negative logarithm of the IC50 (pIC50) against ACAT is 7.89. Also, in assay [1], the inhibition in vivo at 1 mg/kg was 39%.

With `CCCCC(CNC(=O)Nc1c(C(C)C)cccc1C(C)C)c1ccc2c(c1)OCO2` (single isomer, unassigned; (+)) [Example 61, (+)-1-(2-(3,4-methylenedioxyphenyl)-hexyl)-3-(2,6-diisopropylphenyl)urea], the inhibition in vivo at 1 mg/kg in assay [1] was 45%.

On to `CCC(CNC(=O)Nc1c(C(C)C)cccc1C(C)C)c1cccc2c1OCO2` (stereo not shown) [Example 3], for which, at ACAT, the pIC50 is 7.07.

Take `CCCC(CNC(=O)Nc1c(C(C)C)cccc1C(C)C)c1cccc2c1OCO2` (stereo not shown) [Example 5]: on ACAT, the pIC50 was 7.25.

For the compound `CC(C)c1cccc(C(C)C)c1NC(=O)NCC1(c2cccc3c2OCO3)CCCC1` [Example 12], the inhibition in vivo at 1 mg/kg in assay [1] was 10%.

At ACAT, `CCCCCC(CNC(=O)Nc1c(C)cccc1C)c1cccc2c1OCO2` (stereo not shown) [Example 33, 1-(2-(2,3-methylenedioxyphenyl)heptyl)-3-(2,6-dimethylphenyl)urea] gave a pIC50 of 7.42.

For `CCCCCC(CNC(=O)Nc1c(CC)cccc1CC)c1cccc2c1OCO2` (stereo not shown) [Example 35], at ACAT, the pIC50 was 7.49.

`CCCCCC(CNC(=O)Nc1c(C(C)C)cccc1C(C)C)c1cccc2c1OCO2` (single isomer, unassigned) [Example 63] had a pIC50 at ACAT of 8.30. In addition, the “Reduction of Cholesterol in Blood” value in assay [1] is on record as 56%.

As to `CCCCC(CNC(=O)Nc1c(C(C)C)cccc1C(C)C)c1cccc2c1OCCO2` (stereo not shown) [Example 14], the inhibition in vivo at 1 mg/kg in assay [1] worked out at 30%.

For the compound `CCCCC(CNC(=O)Nc1c(C(C)C)cccc1C(C)C)c1ccc2c(c1)OCO2` (stereo not shown) [Example 17], at ACAT, the negative logarithm of the IC50 (pIC50) is 8.05. In assay [1], the inhibition in vivo at 1 mg/kg came out at 34%.

Turning to `CCCCC(CNC(=O)Nc1c(C(C)C)cccc1C(C)C)c1cccc2c1CCCC2` (stereo not shown) [Example 55, 1-(2-(2,3-tetramethylenephenyl)hexyl)-3-(2,6-diisopropylphenyl)urea], the inhibition in vivo at 1 mg/kg in assay [1] was determined as 35%.

As for `CC(C)CCCC(CNC(=O)Nc1c(C(C)C)cccc1C(C)C)c1ccc2c(c1)OCO2` (stereo not shown) [Example 20], the inhibition in vivo at 1 mg/kg in assay [1] turned out to be 46%.

For the compound `CCCCCC(CCCCC)(CNC(=O)Nc1c(C(C)C)cccc1C(C)C)c1cccc2c1OCO2` [Example 31], in assay [1], the inhibition in vivo at 1 mg/kg stood at 16%.

With `CC(C)CCCC(CNC(=O)Nc1c(C(C)C)cccc1C(C)C)c1cccc2c1CCCC2` (stereo not shown) [Example 57], the inhibition in vivo at 1 mg/kg in assay [1] worked out at 38%.

Turning to `CCCCCC(CNC(=O)Nc1c(C(C)C)cccc1C(C)C)c1ccc2c(c1)OCCO2` (stereo not shown) [Example 24], the inhibition in vivo at 1 mg/kg in assay [1] worked out at 41%.

As for `CCCCCC(CNC(=O)Nc1c(C(C)C)cccc1C(C)C)c1ccc2c(c1)OCO2` (stereo not shown) [Example 18], in assay [1], the inhibition in vivo at 1 mg/kg was determined as 33%.

For `CCCCCCC(CNC(=O)Nc1c(C(C)C)cccc1C(C)C)c1cccc2c1OCO2` (stereo not shown) [Example 8], on ACAT, the pIC50 was 7.96.

`CC(C)c1cccc(C(C)C)c1NC(=O)NCC1(c2cccc3c2OCO3)CCCCC1` [Example 13]: the inhibition in vivo at 1 mg/kg in assay [1] came to 19%.

On to `CCCCCCC(CNC(=O)Nc1c(C(C)C)cccc1C(C)C)c1ccc2c(c1)OCO2` (stereo not shown) [Example 19], for which the inhibition in vivo at 1 mg/kg in assay [1] is 23%.

With `CCCCCC(CNC(=O)Nc1c(CC)cccc1C(C)CC)c1cccc2c1OCO2` (stereo not shown) [Example 36], the pIC50 against ACAT is 7.59.

As to `CCCCCC(CNC(=S)Nc1c(C(C)C)cccc1C(C)C)c1cccc2c1OCO2` (stereo not shown) [Example 54, 1-(2-(2,3-methylenedioxyphenyl)heptyl)-3-(2,6-diisopropylphenyl)thiourea], in assay [1], the inhibition in vivo at 1 mg/kg was determined as 21%.

Consider `CCCCC(CNC(=O)Nc1c(C(C)C)cccc1C(C)C)c1ccc2c(c1)OCCCO2` (stereo not shown) [Example 26], for which the inhibition in vivo at 1 mg/kg in assay [1] came out at 40%.

In turn, `CCCCCC(C)(CNC(=O)Nc1c(C(C)C)cccc1C(C)C)c1cccc2c1OCO2` (stereo not shown) [Example 29] had a pIC50 against ACAT of 8.30. Besides, the inhibition in vivo at 1 mg/kg in assay [1] was found to be 61%.

At ACAT, `CCCCCC(CNC(=O)Nc1c(Cl)cccc1Cl)c1cccc2c1OCO2` (stereo not shown) [Example 34, 1-(2-(2,3-methylenedioxyphenyl)heptyl)-3-(2,6-dichlorophenyl)urea] had a pIC50 of 7.47.

`CC(C)c1cccc(C(C)C)c1NC(=O)NCC(c1cccc2c1OCO2)C(C)C` (stereo not shown) [Example 4] showed a pIC50 against ACAT of 7.55.

One may read the pIC50 as the IC50 on a negative log10 scale, so that one unit is a factor of ten. Low readings indicate a large IC50, high ones a small IC50.

Values taken from patent US5202351A, “1-phenylalkyl-3-phenylurea derivative” (Mitsubishi Kasei Corporation, priority 1990, dated 1993).
